Reference: patent US20210352895A1, “SYNERGISTIC PESTICIDAL COMPOSITIONS AND METHODS FOR DELIVERY OF ACTIVE INGREDIENTS” (0903608 B.C. Ltd., priority 2018, published 2021)
“And” between values parts separate entries of the source, which are not always exact repeats. Equal entries are not always repeated.

Key:
Trichoplusia ni [1] = experiment: In-planta insecticidal efficacy of Pylon (chlorfenapyr) with unsaturated aliphatic acids on sprayed green cabbage plants, Colby synergy factor; type: in vivo, Trichoplusia ni (cabbage looper); settings: 0.06 mg/mL aliphatic acid (salt)
Procedure: A stock solution for the potassium salt of (2E,4E)-2,4-hexadienoic acid was prepared by dissolving the salt in water to form a 20 mg/mL (20,000 ppm) solution. […] Each experiment was repeated at least 3 times.
(§1) While for SF<1, antagonism is present and for SF=1, the efficacy of the compounds is merely additive.

Trichoplusia ni [2] = experiment: In-vitro insecticidal efficacy of Pylon (chlorfenapyr) with unsaturated aliphatic acids in artificial diet, Colby synergy factor; type: in vivo, Trichoplusia ni (cabbage looper)
Procedure: A stock solution was prepared for each of trans-2-hexenoic acid and trans-3-hexenoic acid (both available from Sigma-Aldrich, St. Louis, Mo., USA), by dissolving each exemplary unsaturated aliphatic acid in 100% dimethylsulfoxide (DMSO) at a concentration of 20 mg/mL (20,000 ppm). A stock solution for the potassium salt of (2E,4E)-2,4-hexadienoic acid was prepared by dissolving the salt in water to form a 20 mg/mL (20,000 ppm) solution.
An artificial diet suitable for Trichoplusia ni (cabbage looper caterpillar) was prepared according to the modified McMorran artificial diet recipe known in the entomology field (containing agar, casein, potassium hydroxide, alphacel, Wesson's salt mix, sugar, toasted wheat germ, choline chloride, ascorbic acid, methyl paraben, aureomycin, linseed oil and vitamin solution).
The treated artificial diet was then used to fill each well of a 24-well treatment plate with approximately 0.5 mL of artificial diet, which was allowed to solidify at room temperature and stored overnight at approximately 4 C. […] Each experiment contained 3 replicates, and was repeated at least 3 times.
as §1

Fusarium oxysporum = experiment: Synergistic Growth Inhibition Assay (MIC / FIC index, resazurin, 96-well) on Fusarium oxysporum; type: cell-based; settings: Compound A alone
Procedure: (§2) In some embodiments, the synergistic action between the pesticidal active ingredient, and the at least one C4-C10 (or alternatively C11 or C12) saturated or unsaturated aliphatic acid components of the pesticidal compositions according to embodiments of the present disclosure was tested using a Synergistic Growth Inhibition Assay, which is derived from and related to a checkerboard assay as is known in the art for testing of combinations of antimicrobial agents. In the Synergistic Growth Inhibition Assay used in accordance with some embodiments of the present disclosure, multiple dilutions of combinations of pesticidal active ingredient and at least one C4-C10 saturated or unsaturated aliphatic acid agents are tested in individual cells for inhibitory activity against a target pest or pathogenic organism. In one such embodiment, the combinations of pesticidal active ingredient and C4-C10 (or alternatively C11 or C12) saturated or unsaturated aliphatic acid agents may preferably be tested in decreasing concentrations. In a further such embodiment, the combinations of pesticidal active ingredient and C4-C10 (or alternatively C11 or C12) saturated or unsaturated aliphatic acid agents may be tested in increasing concentrations. These multiple combinations of the pesticidal active ingredient and at least one C4-C10 (or alternatively C11 or C12) saturated or unsaturated aliphatic acid agents may be prepared in 96-well microtiter plates. In one such embodiment, the Synergistic Growth Inhibition Assay then comprises rows which each contain progressively decreasing concentrations of the pesticidal active ingredient and one or more C4-C10 (or alternatively C11 or C12) saturated or unsaturated aliphatic acid agents to test for the MIC of the agents in combination at which growth of the target pest or pathogen is inhibited. Thus, each well of the microtiter plate is a unique combination of the two agents, at which inhibitory efficacy of the combination against the target pest or pathogen can be determined.
(§3) In one embodiment according to the present disclosure, for each row of microtiter cells in the Synergistic Growth Inhibition Assay, the FIC index is calculated from the lowest concentration of the pesticidal active ingredient and one or more C4-C10 saturated or unsaturated aliphatic acid agents necessary to inhibit growth of a target pest or pathogen. The FIC of each component is derived by dividing the concentration of the agent present in that well of the microtiter plate by the minimal inhibitory concentration (MIC) needed of that agent alone to inhibit growth of the target pest or pathogen. The FIC index is then the sum of these values for both agents in that well of the microtiter plate. The FIC index is calculated for each row as follows:
(§4) FICindex=MICa/MICA+MICb/MICB
(§5) Fractional inhibitory concentration indices may then used as measure of synergy. […] When the FIC index is equal to 1, the combination is additive.
(§6) Then, serial dilutions of these initial compositions in successive wells in the row of the microtiter plate were used to assay the pesticidal composition under the same conditions to determine the concentration of the composition combining the two agents corresponding to the microtiter well in which growth inhibition of the target pest or organism ceases.
Resazurin dye (also known as Alamar blue dye) was used as an indicator to determine the presence of growth or inhibition of growth of Fusarium oxysporum in the wells of the 96 well microtiter plates used in the exemplary Synergistic Growth Inhibition Assay. In addition to the color change of the resazurin dye in the presence of growth of the Fusarium oxysporum, an optical or visual examination of the microtiter well may also be made to additionally determine the presence of growth or inhibition of growth of the Fusarium oxysporum.

Botrytis cinerea = experiment: Synergistic Growth Inhibition Assay (MIC / FIC index, resazurin, 96-well) on Botrytis cinerea; type: cell-based
Procedure: as §2, §3, §4, §5, §6
(§7) Similarly to as described above, Resazurin was used as an indicator of growth or inhibition of growth of Botrytis cinerea in the exemplary Synergistic Growth Inhibition Assay. In addition to the color change of the resazurin, an optical or visual examination of the microtiter well may also be made to additionally determine the presence of growth or inhibition of growth of the Botrytis cinerea.

Sclerotinia sclerotiorum = experiment: Synergistic Growth Inhibition Assay (MIC / FIC index, resazurin, 96-well) on Sclerotinia sclerotiorum; type: cell-based; settings: Compound A alone
Procedure: as §2, §3, §4, §5, §6
as §7, with “Sclerotinia sclerotiorum” for “Botrytis cinerea”, “Sclerotinia sclerotiorum.” for “Botrytis cinerea.”

[3] = Solubility / effective solubilized concentration in 10% DMSO/90% PDB by HPLC; settings: DMSO stock diluted 10-fold in PDB; verified by HPLC
Procedure: This solution was diluted 10-fold in potato dextrose broth (PDB) to give a concentration of 0.05 mg/mL in 10% DMSO/90% PDB.

[4] = aliphatic acid (salt) 0.05 mg/mL
[5] = aliphatic acid (salt) 0.30 mg/mL

## CC=CC=CC(=O)[O-].[K+] [2,4-hexadienoic acid, K-salt]
Trichoplusia ni [1]; after 48 hours
  Observed Efficacy (%): 13%
Trichoplusia ni [1]; after 72 hours
  Observed Efficacy (%): 0%

## CC=CC=CC(=O)[O-].[K+] [2,4-hexenoic acid-Ksalt]
Trichoplusia ni [2]; [4]
  72 hr Obs. Efficacy: 4%
  90 hr Obs. Efficacy: 4%
  120 hr Obs. Efficacy: 4%
Trichoplusia ni [2]; [5]
  72 hr Obs. Efficacy: 13%
  90 hr Obs. Efficacy: 13%
  120 hr Obs. Efficacy: 4%

## CO/C=C(/C(=O)OC)c1ccccc1Oc1cc(Oc2ccccc2C#N)ncn1 [Azoxystrobin, reference compound]
Fusarium oxysporum; 48 hours incubation
  MIC (A): 75 µg/mL and 150 µg/mL
Fusarium oxysporum; Fusarium oxysporum, 2-fold dilutions, incubation period of 48 hours
  MIC (A): 150 µg/mL
Fusarium oxysporum; Fusarium oxysporum, incubation period of 48 hours
  MIC (A): 150 µg/mL
Botrytis cinerea; Compound A alone, 48 hours incubation
  MIC (A): 37.5 µg/mL and 75 µg/mL
Botrytis cinerea; Compound A alone, Botrytis cinerea, incubation period of 2 days
  MIC (A): 150 µg/mL
Botrytis cinerea; Compound A alone, Botrytis cinerea, incubation period of 48 hours
  MIC (A): 150 µg/mL
Botrytis cinerea; Table 45, Compound A = azoxystrobin, alone or in combination with Compound B, 48 hours incubation
  MIC (A): 75 µg/mL
Sclerotinia sclerotiorum; 7 days incubation
  MIC (A): 150 µg/mL and 75 µg/mL
Sclerotinia sclerotiorum; Sclerotinia sclerotiorum, 2-fold dilutions, incubation period of 7 days
  MIC (A): 150 µg/mL
Sclerotinia sclerotiorum; Sclerotinia sclerotiorum, incubation period of 7 days
  MIC (A): 150 µg/mL
[3]
  effective solubilized concentration of working stock solution: 0.15 mg/mL
